Laboratory results reported in EP0533925A1, “OPTICAL ISOMER OF R-FORM OF DIPHENYL ETHER DERIVATIVE AND HERBICIDE CONTAINING THE SAME AS ACTIVE INGREDIENT” (TEIJIN LIMITED, priority 1990, dated 1991).

Legend:
Assay in all cases: Herbicidal activity, foliar application of single compounds (Test Examples 1 to 5)
Type in all cases: in vivo
Set-up in all cases: key: 0 means the state where the plants are as sound as before the application of the active compound; 1, 2, 3 and 4 mean varying degrees of the enfeebled state of the plants between 0 and 5; 1, 2, 3 and 4 mean varying degrees of the enfeebled state of the plants between 0 and 5; 1, 2, 3 and 4 mean varying degrees of the enfeebled state of the plants between 0 and 5; 1, 2, 3 and 4 mean varying degrees of the enfeebled state of the plants between 0 and 5; 5 is the state where the plants are withered or killed by application of the active compound
Conditions in all cases: 3 weeks after application
Abutilon theophrosti = test system: Abutilon theophrosti
Description: (§1) In these examples, all parts means parts by weight, unless otherwise noted. The herbicidal activity was evaluated on a scale of 6 degrees. In other words, 0 means the state where the plants are as sound as before the application of the active compound, while 5 is the state where the plants are withered or killed by application of the active compound, and 1, 2, 3 and 4 mean varying degrees of the enfeebled state of the plants between 0 and 5.
(§2) The diphenyl ethers shown in Table 2 were added to 5000 parts of a mixture of acetone and water (1 : 1 by volume), and 2.6 parts of a nonionic surfactant (Sorpol 2680, tradename) was added to form a solution, so that the ether becomes the prescribed amount in each solution.
(§3) Seeds of plants were sown in the soil, cultivated for 2 to 3 weeks, after germination, then the plants were used for the tests.
(§4) The prepared solution was applied to these plants at the prescribed rate of application in total, then the plants were continuously cultivated for 3 weeks without applying the solution.
(§5) The alphabetical symbols in Tables 2 and 3 represent the following plants, respectively: a: Digitaria adscendens b: Setaria viridis c: Sorghum halepense d: Chenopodium album var. centrorubrum e: Amaranthus mangostanus f: Astragalus sinicus g: Abutilon theophrosti h: Solanum nigrum i: Xanthium strumarium j: Soybean; Glycine max k: Corn; Zea mays Table 2

Amaranthus mangostanus = test system: Amaranthus mangostanus
Description: as §1, §2, §3, §4, §5

Astragalus sinicus = test system: Astragalus sinicus
Description: as §1, §2, §3, §4, §5

[1] = test system: Chenopodium album var. centrorubrum
Description: as §1, §2, §3, §4, §5

Corn; Zea mays = test system: Corn; Zea mays
Description: as §1, §2, §3, §4, §5

Digitaria adscendens = test system: Digitaria adscendens
Description: as §1, §2, §3, §4, §5

Setaria viridis = test system: Setaria viridis
Description: as §1, §2, §3, §4, §5

Solanum nigrum = test system: Solanum nigrum
Description: as §1, §2, §3, §4, §5

Sorghum halepense = test system: Sorghum halepense
Description: as §1, §2, §3, §4, §5

Soybean; Glycine max = test system: Soybean; Glycine max
Description: as §1, §2, §3, §4, §5

Xanthium strumarium = test system: Xanthium strumarium
Description: as §1, §2, §3, §4, §5

[2] = Rate of Application 0.016 kg/ha
[3] = Rate of Application 0.031 kg/ha
[4] = Rate of Application 0.008 kg/ha

SMILES | herbicidal activity, Plants g (Abutilon theophrosti; [3]) | herbicidal activity, Plants e (Amaranthus mangostanus; [3]) | herbicidal activity, Plants f (Astragalus sinicus; [3]) | herbicidal activity, Plants d [1, 3] | herbicidal activity, Plants k (Corn; Zea mays; [3]) | herbicidal activity, Plants a (Digitaria adscendens; [3]) | herbicidal activity, Plants b (Setaria viridis; [3]) | herbicidal activity, Plants h (Solanum nigrum; [3]) | herbicidal activity, Plants c (Sorghum halepense; [3]) | herbicidal activity, Plants j (Soybean; Glycine max; [3]) | herbicidal activity, Plants i (Xanthium strumarium; [3]) | herbicidal activity, Plants g (Abutilon theophrosti; [4]) | herbicidal activity, Plants e (Amaranthus mangostanus; [4]) | herbicidal activity, Plants f (Astragalus sinicus; [4]) | herbicidal activity, Plants d [1, 4] | herbicidal activity, Plants k (Corn; Zea mays; [4]) | herbicidal activity, Plants a (Digitaria adscendens; [4]) | herbicidal activity, Plants b (Setaria viridis; [4]) | herbicidal activity, Plants h (Solanum nigrum; [4]) | herbicidal activity, Plants c (Sorghum halepense; [4]) | also measured
COC(=O)C(C)Oc1cc(Oc2ccc(C(F)(F)F)cc2Cl)ccc1C#N (racemic) [Racemic (1), racemic methyl α-[2-cyano-5-(2-chloro-4-trifluoromethylphenoxy)phenoxy]propionate, reference compound] | 5 | 5 | 5 | 5 | 5 | 4 | 3 | 5 | 5 | 4 | 5 | – | – | – | – | – | – | – | – | – | herbicidal activity, Plants g (Abutilon theophrosti; [2]): 5; herbicidal activity, Plants e (Amaranthus mangostanus; [2]): 5; herbicidal activity, Plants f (Astragalus sinicus; [2]): 5; herbicidal activity, Plants d [1, 2]: 5; herbicidal activity, Plants k (Corn; Zea mays; [2]): 4; herbicidal activity, Plants a (Digitaria adscendens; [2]): 3; herbicidal activity, Plants b (Setaria viridis; [2]): 2; herbicidal activity, Plants h (Solanum nigrum; [2]): 5; herbicidal activity, Plants c (Sorghum halepense; [2]): 2; herbicidal activity, Plants j (Soybean; Glycine max; [2]): 4; herbicidal activity, Plants i (Xanthium strumarium; [2]): 5
CCOC(=O)C(C)Oc1cc(Oc2ccc(C(F)(F)F)cc2Cl)ccc1C#N (stereo not drawn) [(2), ethyl α-[2-cyano-5-(2-chloro-4-trifluoromethylphenoxy)phenoxy]propionate] | 5 | 5 | 5 | 5 | 5 | 4 | 4 | 5 | 5 | 5 | 5 | 5 | 3 | 4 | 5 | 4 | 3 | 3 | 5 | 3 | herbicidal activity, Plants j (Soybean; Glycine max; [4]): 4; herbicidal activity, Plants i (Xanthium strumarium; [4]): 5
CCCCOC(=O)C(C)Oc1cc(Oc2ccc(C(F)(F)F)cc2Cl)ccc1C#N (stereo not drawn) [(3), n-Butyl α-[2-cyano-5-(2-chloro-4-trifluoromethylphenoxy)phenoxy]propionate] | 5 | 5 | 5 | 5 | 5 | 5 | 4 | 5 | 5 | 5 | 5 | 5 | 5 | 4 | 5 | 2 | 3 | 3 | 5 | 2 | herbicidal activity, Plants j (Soybean; Glycine max; [4]): 3; herbicidal activity, Plants i (Xanthium strumarium; [4]): 4
CCOC(=O)C(C)Oc1cc(Oc2ncc(C(F)(F)F)cc2Cl)ccc1C#N (stereo not drawn) [(37), Ethyl α-[2-cyano-5-(3-chloro-5-trifluoromethyl-2-pyridyloxy)phenoxy]propionate] | 5 | 5 | 4 | 5 | 3 | 4 | 4 | 4 | 5 | 4 | 5 | 5 | 5 | 3 | 3 | 2 | 3 | 3 | 4 | 3 | herbicidal activity, Plants j (Soybean; Glycine max; [4]): 3; herbicidal activity, Plants i (Xanthium strumarium; [4]): 4
